Literature values in patent US20060136023A1 (priority 2004, published 2006).

Legend:
clots [1] = conditions: clots treated with plasminogen (2 mg) and SK (100 IU) in 15 ml PBS; clot temperature raised from 24° C. to 37° C.
shivering threshold = conditions: in vivo
Plasminogen [2] = target: T1, Plasminogen (Homo sapiens, UniProt P00747); conditions: clots treated with UK at 4° C.; heating to 28° C.
clots [3] = conditions: tPA 0.3, 1.0 and 3.0 μg/ml; incubated from 24° C. to 40° C.
Plasminogen [4] = target: T1, Plasminogen

T1 sequence (P00747 20-810 limits assumed, species assumed): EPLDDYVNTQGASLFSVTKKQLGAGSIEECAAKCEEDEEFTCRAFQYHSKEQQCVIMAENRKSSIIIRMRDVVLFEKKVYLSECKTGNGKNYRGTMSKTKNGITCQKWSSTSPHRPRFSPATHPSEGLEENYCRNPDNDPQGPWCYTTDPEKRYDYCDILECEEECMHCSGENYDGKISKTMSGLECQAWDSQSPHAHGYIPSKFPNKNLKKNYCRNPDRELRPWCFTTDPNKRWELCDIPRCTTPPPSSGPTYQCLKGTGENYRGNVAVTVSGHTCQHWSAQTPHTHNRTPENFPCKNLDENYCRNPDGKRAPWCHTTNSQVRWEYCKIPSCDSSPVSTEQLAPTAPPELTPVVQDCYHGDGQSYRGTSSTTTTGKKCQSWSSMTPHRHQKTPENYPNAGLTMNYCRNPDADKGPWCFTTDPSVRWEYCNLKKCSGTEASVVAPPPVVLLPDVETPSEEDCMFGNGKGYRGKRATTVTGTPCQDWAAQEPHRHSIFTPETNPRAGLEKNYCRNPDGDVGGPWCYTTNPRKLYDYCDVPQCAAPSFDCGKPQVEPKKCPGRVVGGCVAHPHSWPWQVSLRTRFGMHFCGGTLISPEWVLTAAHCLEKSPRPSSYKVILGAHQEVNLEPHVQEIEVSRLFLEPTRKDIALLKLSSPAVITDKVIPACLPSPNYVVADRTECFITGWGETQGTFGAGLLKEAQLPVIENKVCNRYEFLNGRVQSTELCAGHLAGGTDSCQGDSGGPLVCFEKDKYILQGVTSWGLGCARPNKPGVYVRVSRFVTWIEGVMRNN

Question: With streptokinase [SK] as the compound, how does the fibrinolytic activity (clots [1]) read?
Answer: The fibrinolytic activity was “heating enhanced the fibrinolytic activity”.

Question: Which antishivering activity (shivering threshold) does the source give for `CN1CC[C@]23c4c5ccc(O)c4O[C@H]2[C@@H](O)C=C[C@H]3[C@H]1C5` [morphine] here?
Answer: Its antishivering activity is “less or no antishivering activity”.

Question: For `CC(C)=CCN1CCC2(C)c3cc(O)ccc3CC1C2C` (stereo not shown) [pentazocine], which antishivering activity (shivering threshold) is on record?
Answer: The antishivering activity was “less or no antishivering activity”.

Question: Which “decrease of shivering threshold relative to vasoconstriction threshold” value (shivering threshold) does the source give for `CCOC(=O)C1(c2ccccc2)CCN(C)CC1` [Meperidine] here?
Answer: The value was “twice as much”.

Question: And the “effect on the gain and maximum intensity of shivering” value (shivering threshold)?
Answer: Its value is “does not have much effect”.

Question: With `Oc1ccc2c3c1O[C@H]1[C@@H](O)CC[C@@]4(O)[C@@H](C2)N(CC2CCC2)CC[C@]314` [nalbuphine] as the compound, how does the antishivering activity (shivering threshold) read?
Answer: Its antishivering activity is “less or no antishivering activity”.

Question: With urokinase [UK] as the compound, how does the “conversion of plasminogen to plasmin (fibrinolytic activity)” value (Plasminogen [2]) read?
Answer: Its value is “complete conversion of all plasminogen to plasmin”.

Question: Which antishivering activity (shivering threshold) does the source give for `CN1CCOC(c2ccccc2)c2ccccc2C1` (racemic) [nefopam] here?
Answer: Its antishivering activity is “prevent post-operative shivering”.

Question: Which results are given for tissue plasminogen activator [tPA]?
Answer: amount of clot lysis (clots [3]): correlated with temperature at all concentrations; fibrinolytic activity (Plasminogen [4]; 2.5 μg/ml tPA, cooling from normal body temperature to a hypothermic temperature): increased fibrinolytic activity; Plasminogen activation (Plasminogen [4]; clots treated with 2.5 μg/ml tPA, incubated at 37, 25, 10, 0 and −8° C.): relatively high at low temperatures

Question: With `CCC(=O)OC1(c2ccccc2)CCN(C)CC1C` (racemic) [alpha prodine, Alpha prodine] as the compound, how does the “affinity for the opiate receptor, one enantiomer versus the other” value (opiate receptor) read?
Answer: Its value is “(+) isomer has much greater affinity”.

Question: Which “affinity for the opiate receptor, one enantiomer versus the other” value (opiate receptor) does the source give for `CCC(=O)O[C@@]1(c2ccccc2)CCN(C)C[C@@H]1C` [beta prodine] here?
Answer: Its value is “(+) isomer has much greater affinity”.
